Results published in US12662451B2, “Chemical compounds and uses thereof” (GLAXOSMITHKLINE INTELLECTUAL PROPERTY (NO.4) LIMITED, priority 2023, dated 2026).
Where two headings read alike, the source gives them in different places.

Key:
[1] = Cell culture media unbound percentage and stability by rapid equilibrium dialysis (Example C); assay type: in vitro ADME; settings: bovine, cell assay medium (RPMI-1640 with 10% fetal bovine serum), pH 7.4, rapid equilibrium dialysis, 4 hours at 37° C., read-out: Cell Culture Media Binding (% unbound)
In short: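 Compound spiked into cell culture medium at nominal 1 μM and dialysed against PBS (100 mM sodium phosphate + 150 mM NaCl, pH 7.4) by rapid equilibrium dialysis, triplicate, 4 h at 37° C with shaking. LC-MS/MS peak area ratios gave percent unbound (receiver/donor) and percent stability (240 min vs 0 min).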

[2] = system: SW48 human colorectal cancer cells; assay: Calculated free drug potency in SW48 cell assay, corrected with media free fraction (Example C); assay type: cell-based; settings: for CC50: Homo sapiens, SW48, SW48 pCC50 corrected with measured free fraction in cell assay media
In short: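 Compound spiked at nominal 1 μM into cell assay medium and dialysed against PBS (100 mM sodium phosphate, 150 mM NaCl, pH 7.4) by rapid equilibrium dialysis, 4 h, 37 °C, shaking. Percent unbound from LC-MS/MS peak area ratios (240 min vs 0 min); cell assay concentrations corrected by this free fraction.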

[3] = target: T1, recombinant full-length WRN protein (1-1432) (Homo sapiens, UniProt Q14191); assay: WRN unwinding activity, fluorogenic 384-well assay (Example A); assay type: biochemical; settings: WRN unwinding activity, 4 hr; Table 2; read-out: 4 hr UNW pIC50 (converted)
T1 construct: recombinant full-length WRN protein (1-1432)
In short: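 200 pM enzyme (2× stock) preincubated with compound 4 h at ambient temperature, then 200 μM ATP and 12 nM quenched TAMRA-labelled dsDNA (2× stocks) added for 60 min; EDTA-quenched. Buffer 25 mM Tris pH 8.0, 5 mM NaCl, 2 mM MgCl2. Fluorescence at 525/598 nm; pIC50 from four-parameter fit.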

[4] = system: SW48 human colorectal cancer cells (MSI-H cancer cells); assay: SW48 cell viability, CellTiter-Glo, 120 hours (Example B); settings: for CC50: Homo sapiens
[5] = SW48, 120 h, read-out: SW48 pCC50, SW48 cell viability, 120 hours incubation (converted), Table 2
[6] = SW48, read-out: SW48 pCC50, measured potency from Example B, as repeated in Table 3 (converted)

T1 sequence (Q14191 whole entry): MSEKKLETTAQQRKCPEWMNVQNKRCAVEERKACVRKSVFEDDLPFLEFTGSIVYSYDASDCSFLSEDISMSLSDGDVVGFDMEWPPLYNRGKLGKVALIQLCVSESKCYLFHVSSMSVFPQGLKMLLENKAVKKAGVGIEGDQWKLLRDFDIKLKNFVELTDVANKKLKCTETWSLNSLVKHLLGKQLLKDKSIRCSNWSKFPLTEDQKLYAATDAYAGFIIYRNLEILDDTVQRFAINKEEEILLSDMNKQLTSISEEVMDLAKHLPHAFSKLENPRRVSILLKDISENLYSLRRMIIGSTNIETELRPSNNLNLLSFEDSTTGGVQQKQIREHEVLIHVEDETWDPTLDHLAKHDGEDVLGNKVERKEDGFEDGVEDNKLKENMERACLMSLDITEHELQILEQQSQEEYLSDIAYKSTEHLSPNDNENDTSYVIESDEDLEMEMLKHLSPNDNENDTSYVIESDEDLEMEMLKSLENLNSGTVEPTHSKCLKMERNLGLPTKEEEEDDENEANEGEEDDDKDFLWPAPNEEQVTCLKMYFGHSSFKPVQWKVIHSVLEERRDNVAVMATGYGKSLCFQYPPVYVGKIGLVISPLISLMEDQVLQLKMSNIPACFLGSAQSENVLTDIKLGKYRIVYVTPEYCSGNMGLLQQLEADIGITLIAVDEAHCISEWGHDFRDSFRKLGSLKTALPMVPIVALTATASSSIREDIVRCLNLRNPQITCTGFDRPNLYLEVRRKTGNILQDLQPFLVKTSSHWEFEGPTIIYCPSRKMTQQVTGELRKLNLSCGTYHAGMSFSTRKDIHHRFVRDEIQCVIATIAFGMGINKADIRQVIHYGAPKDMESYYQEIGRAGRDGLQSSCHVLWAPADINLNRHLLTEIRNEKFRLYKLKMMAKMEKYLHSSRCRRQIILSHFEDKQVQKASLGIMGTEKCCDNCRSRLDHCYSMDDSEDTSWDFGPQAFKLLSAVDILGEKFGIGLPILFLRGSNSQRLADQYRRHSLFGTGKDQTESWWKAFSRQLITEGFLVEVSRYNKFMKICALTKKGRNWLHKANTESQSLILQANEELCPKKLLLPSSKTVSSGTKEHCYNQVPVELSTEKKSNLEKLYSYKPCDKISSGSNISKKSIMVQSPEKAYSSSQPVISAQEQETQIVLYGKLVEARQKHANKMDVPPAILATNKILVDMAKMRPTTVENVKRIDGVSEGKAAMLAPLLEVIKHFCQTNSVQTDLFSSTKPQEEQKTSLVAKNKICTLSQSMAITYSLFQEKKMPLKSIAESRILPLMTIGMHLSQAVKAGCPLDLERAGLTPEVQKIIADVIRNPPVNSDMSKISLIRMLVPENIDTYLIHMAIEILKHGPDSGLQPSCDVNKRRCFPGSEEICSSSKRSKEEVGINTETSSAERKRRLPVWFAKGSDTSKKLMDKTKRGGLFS

SMILES	fraction unbound at 4 h, 1 µM [1]	CC50 [2] [nM]	IC50 [3] [nM]	CC50 [4, 5] [nM]	CC50 [4, 6] [nM]	Free Drug SW48 pCC50 ([2]; SW48 pCC50 corrected with measured free fraction in cell assay media)	SW48 pCC50 ([4]; SW48 cell viability, 120 hours incubation, Table 2)	SW48 pCC50 ([4]; measured potency from Example B, as repeated in Table 3)
CCO[C@@H]1C[C@H](c2ccc(N(C)S(=O)(=O)c3ccc4c(c3)nc(N(C)C)n4C)cc2)[C@@H](C(=O)O)[C@H](C(=O)Nc2ccc(C(F)(F)F)cc2F)C1 [Example 139, (1R,2S,4R,6R)-2-(4-((2-(dimethylamino)-N,1-dimethyl-1H-benzo[d]imidazole)-5-sulfonamido)phenyl)-4-ethoxy-6-((2-fluoro-4-(trifluoromethyl)phenyl)carbamoyl)cyclohexane-1-carboxylic acid]	0.0518	5.13	1.58	100	100			
CCO[C@@H]1C[C@H](c2ccc(N(C)S(=O)(=O)c3cnc4c(c3)nc(C)n4C)cc2)[C@@H](C(=O)O)[C@H](C(=O)Nc2ccc(C(F)(F)F)cc2F)C1 [Example 141, (1R,2R,4R,6S)-4-ethoxy-2-((2-fluoro-4-(trifluoromethyl)phenyl)carbamoyl)-6-(4-((N,2,3-trimethyl-3H-imidazo[4,5-b]pyridine)-6-sulfonamido)phenyl)cyclohexane-1-carboxylic acid]	0.112	70.8	3.16	631	631			
Cc1nc2cc(S(=O)(=O)N(C)c3ccc([C@@H]4C[C@H](NCC(F)(F)F)C[C@H](C(=O)Nc5ccc(C(F)(F)F)cc5F)[C@H]4C(=O)O)cc3)ccc2n1C (stereo in doubt) [Example 333, rel-(1R,2R,4R,6S)-2-((2-fluoro-4-(trifluoromethyl)phenyl)carbamoyl)-4-((2,2,2-trifluoroethyl)amino)-6-(4-((N,1,2-trimethyl-1H-benzo[d]imidazole)-5-sulfonamido)phenyl)cyclohexane-1-carboxylic acid]	0.326	3240	126	10000				
Cc1nc2cc(S(=O)(=O)N(C)c3ccc([C@H]4CCC[C@@H](C(=O)Nc5ccc(C(F)(F)F)cc5F)[C@@H]4C(=O)O)cc3)cnc2n1C [Example 124, (1R,2R,6S)-2-((2-fluoro-4-(trifluoromethyl)phenyl)carbamoyl)-6-(4-((N,2,3-trimethyl-3H-imidazo[4,5-b]pyridine)-6-sulfonamido)phenyl)cyclohexane-1-carboxylic acid]	0.097	49	3.98	501	501			
Cc1nc2cc(S(=O)(=O)N(C)c3ccc([C@H]4CCC[C@@H](C(=O)Nc5ccc(C(F)(F)F)cc5F)[C@@H]4C(=O)O)cc3)c(F)cc2n1C [Example 127, (1R,2R,6S)-2-((2-fluoro-4-(trifluoromethyl)phenyl)carbamoyl)-6-(4-((6-fluoro-N,1,2-trimethyl-1H-benzo[d]imidazole)-5-sulfonamido)phenyl)cyclohexane-1-carboxylic acid]	0.0443	44.7	3.98	1000	1000			
CN1CCN(C)c2cc(S(=O)(=O)N(C)c3ccc([C@H]4CCC[C@@H](C(=O)Nc5ccc(C(F)(F)F)cc5F)[C@@H]4C(=O)O)cc3)ccc21 [Example 123, (1R,2R,6S)-2-((2-fluoro-4-(trifluoromethyl)phenyl)carbamoyl)-6-(4-((N,1,4-trimethyl-1,2,3,4-tetrahydroquinoxaline)-6-sulfonamido)phenyl)cyclohexane-1-carboxylic acid]	0.0071	3.55	3.98	501	501			
Cc1nc2cc(S(=O)(=O)N(C)c3ccc([C@H]4C[C@@H]5OCC[C@@H]5[C@@H](C(=O)Nc5ccc(C(F)(F)F)cc5F)[C@@H]4C(=O)O)cc3)ccc2n1C (single isomer, unassigned) [Example 157]	0.242		2.51			7.50	6.9	6.9
CCOC1CC(C(=O)Nc2ccc(C(F)(F)F)cc2)C(C(=O)O)C(c2ccc(N(C)S(=O)(=O)c3ccc4c(c3)nc(C)n4C)cc2)C1 [Example 330, rel-(1R,2R,4R,6S)-4-ethoxy-2-((4-(trifluoromethyl)phenyl)carbamoyl)-6-(4-((N,1,2-trimethyl-1H-benzo[d]imidazole)-5-sulfonamido)phenyl)cyclohexane-1-carboxylic acid]	0.102	40.7	5.01	398	398			
CN(c1ccc([C@H]2CCC[C@@H](COc3ccc(C(F)(F)F)cc3)[C@@H]2C(=O)O)cc1)S(=O)(=O)c1ccc2c(c1)nc(CCN)n2C [Example 273]	0.0082	64.6	5.01	7940	7940			
Cc1nc2cc(S(=O)(=O)N(C)c3ccc([C@H]4C[C@H](N5CC6(F)CC5C6)C[C@@H](C(=O)Nc5ccc(C(F)(F)F)cc5F)[C@@H]4C(=O)O)cc3)ccc2n1C (relative stereo) [Example 400, rel-(1R,2R,4S,6S)-2-((2-fluoro-4-(trifluoromethyl)phenyl)carbamoyl)-4-(4-fluoro-2-azabicyclo[2.1.1]hexan-2-yl)-6-(4-((N,1,2-trimethyl-1H-benzo[d]imidazole)-5-sulfonamido)phenyl)cyclohexane-1-carboxylic acid]	0.049	389	20	7940	7940			
Cc1nc2cc(S(=O)(=O)N(C)c3ccc([C@@H]4C[C@H](O[C@@H]5CCOC5)C[C@H](C(=O)Nc5ccc(C(F)(F)F)cc5F)[C@H]4C(=O)O)cc3)ccc2n1C (stereo in doubt) [Example 322, (1R*,2R*,4R*,6S*)-2-((2-fluoro-4-(trifluoromethyl)phenyl)carbamoyl)-4-(((R)-tetrahydrofuran-3-yl)oxy)-6-(4-((N,1,2-trimethyl-1H-benzo[d]imidazole)-5-sulfonamido)phenyl)cyclohexane-1-carboxylic acid]	0.362	3630	20	10000				
Cc1nc2cc(S(=O)(=O)N(C)c3ccc([C@H]4C[C@@H](OCC5CCOCC5)C[C@@H](C(=O)Nc5ccc(C(F)(F)F)cc5F)[C@@H]4C(=O)O)cc3)ccc2n1C (stereo in doubt) [Example 355, rel-(1R,2R,4R,6S)-2-((2-fluoro-4-(trifluoromethyl)phenyl)carbamoyl)-4-((tetrahydro-2H-pyran-4-yl)methoxy)-6-(4-((N,1,2-trimethyl-1H-benzo[d]imidazole)-5-sulfonamido)phenyl)cyclohexane-1-carboxylic acid]	0.128	12.9	3.98	100	100			
Cc1nc2cc(S(=O)(=O)N(C)c3ccc([C@H]4CCC[C@@H](C(=O)Nc5ccc(C(F)(F)F)cc5F)[C@@H]4C(=O)O)cc3F)ccc2n1C (single isomer, unassigned) [Example 368]	0.128	102	5.01	794	794			
